Holding throughout (format): cell-based
One assay deals with CDKN1A. Briefly: qRT-PCR CDKN1A gene expression in drug-treated SFA smooth muscle cells. The conditions noted are these: SFA smooth muscle cells from normal donor tissue; qRT-PCR calibrated against unstimulated control; FIG. 13A. On the procedure:
(§1) FIG. 13 depicts effects of paclitaxel on cellular morphology, gene and protein expression. (A and B) SFA smooth muscle cells from normal donor tissue were treated with Paclitaxel, Everolimus or Sirolimus. Gene expression levels were determined by qRT-PCR for each drug arm calibrated against unstimulated control for (A) CDKN1A and (C) CTGF. (B) SMCs were exposed to Sirolimus or Paclitaxel, fixed and stained with Actin (red) and Ki67 (green). (D) SFA derived smooth muscle cells were treated with Paclitaxel, Everolimus or Sirolimus then stimulated with Colchicinne (CTGF a) or Angiotensin II (CTGF b). Protein levels were detected by western blot using antibodies against CTGF and beta actin. One representative blot of three replicates shown.
(§2) Obtaining samples from SFA arteries allowed us to generate SFA derived-smooth muscle cells and to examine the expression of genes of interest as ide12tified in the disease atherectomy samples. In particularly we investigated the transcriptional response to anti-proliferative drugs, e.g. paclitaxel and drugs from the limus family such as sirolimus, everolimus or zotarolimus. These drugs are currently employed in combination devices indicated for the treatment of coronary and peripheral disease, including drug eluting stents and drug eluting balloons. […]
(Quantitative PCR measures a nucleic acid by following its amplification.)

A further assay relates to SFA smooth muscle cells. Kind of assay: Actin and Ki67 staining of drug-exposed SMCs (cellular morphology). Particulars: SMCs fixed and stained with Actin and Ki67; FIG. 13B. On the procedure: as §1, §2
The test system of assay [1] is CTGF. Kind of assay: qRT-PCR CTGF gene expression in drug-treated SFA smooth muscle cells. Particulars: qRT-PCR calibrated against unstimulated control, FIG. 13C. How it is done:
as §1, §2

In assay [2] the test system is CTGF. Briefly: Western blot of CTGF protein in drug-treated SFA derived smooth muscle cells. Particulars: SFA derived smooth muscle cells stimulated with Colchicinne or Angiotensin II, FIG. 13D. On the procedure: as §1, §2
A general note: In western blotting, separated proteins are transferred to a membrane and probed.

The subject of the next assay is BTG2. Kind of assay: qRT-PCR BTG2 expression in drug-treated, inflammatory cocktail stimulated SFA smooth muscle cells. The conditions noted are these: quiescent SFA smooth muscle cells stimulated with FBS, TGF Beta and IL1beta, FIG. 14A. How it is done: (§3) FIG. 14 depicts differential effect of paclitaxel versus the Limus family of drugs on expression of cell cycle, proliferation and ECM target genes in SFA smooth muscle cells. Quiescent SFA smooth muscle cells were treated with of Paclitaxel, Zotarolimus or Sirolimus then stimulated with inflammatory cocktail consisting of FBS, TGF Beta and IL1beta. Relative gene expression levels were determined by qRT-PCR for each drug treated arm as calibrated against the unstimulated baseline control for (A) BTG2, (B) KLF4, (C) PEDF, (D) Endothelin-1, (E) Thrombospondin-1, and (F) Thrombospondin-3.
(§4) Since the limus drugs have been known to affect the signaling via their effect on cell cycle inhibitors (CDKN1A and CDKN1B), we next studied their effects on the pertinent proliferative disease targets identified in this study. Specifically, we looked at BTG2, KLF4 and PEDF (FIGS. 14A, 14B, and 14C, respectively). […] The limus drugs, sirolimus and zotarolimus induced the expression of BTG2, KLF4 cell cycle inhibitors, but not of the proliferation PEDF inhibitor, which are previously unknown actions for these drugs.

Another assay deals with KLF4. Kind of assay: qRT-PCR KLF4 expression in drug-treated, inflammatory cocktail stimulated SFA smooth muscle cells. Particulars: quiescent SFA smooth muscle cells stimulated with FBS, TGF Beta and IL1beta, FIG. 14B. On the procedure: as §3, §4
For the next assay, the system named is PEDF. Briefly: qRT-PCR PEDF expression in drug-treated, inflammatory cocktail stimulated SFA smooth muscle cells. The conditions noted are these: quiescent SFA smooth muscle cells stimulated with FBS, TGF Beta and IL1beta, FIG. 14C. On the procedure:
as §3, §4

Another assay deals with Endothelin-1. Kind of assay: qRT-PCR Endothelin-1 expression in drug-treated, inflammatory cocktail stimulated SFA smooth muscle cells. The conditions noted are these: quiescent SFA smooth muscle cells stimulated with FBS, TGF Beta and IL1beta, FIG. 14D. On the procedure:
as §3
(§5) In a similar manner, the expression of Thrombospondin-1 and Thrombospondin-3 is inhibited by paciltaxel but not by sirolimus and zotarolimus. Taken together the data with regards to the differential effects of commercially employed, anti-proliferative drugs, such as paciltaxel and drugs of the limus family, on the expression of SFA disease target genes can highlight/point to wards the most beneficial therapeutic mode of application and treatment.

The test system of another assay is Thrombospondin-1. Briefly: qRT-PCR Thrombospondin-1 expression in drug-treated, inflammatory cocktail stimulated SFA smooth muscle cells. Particulars: quiescent SFA smooth muscle cells stimulated with FBS, TGF Beta and IL1beta, FIG. 14E. How it is done:
as §3, §5

The test system of a further assay is Thrombospondin-3. Briefly: qRT-PCR Thrombospondin-3 expression in drug-treated, inflammatory cocktail stimulated SFA smooth muscle cells. Particulars: quiescent SFA smooth muscle cells stimulated with FBS, TGF Beta and IL1beta, FIG. 14F. On the procedure:
as §3, §5

The subject of the next assay is Cathepsin S. Kind of assay: In vitro Cathepsin S expression.

The record followed here is US20120315303A1, “METHODS AND INTRAVASCULAR TREATMENT DEVICES USING PACLITAXEL FOR TREATMENT OF ATHEROSCLEROSIS” (Medtronic Vascular, Inc., priority 2011, published 2012).

Take `CO[C@H]1C[C@@H]2CC[C@@H](C)[C@@](O)(O2)C(=O)C(=O)N2CCCC[C@H]2C(=O)O[C@H]([C@H](C)C[C@@H]2CC[C@@H](OCCO)[C@H](OC)C2)CC(=O)[C@H](C)/C=C(\C)[C@@H](O)[C@@H](OC)C(=O)[C@H](C)C[C@H](C)/C=C/C=C/C=C/1C` [everolimus]: the CDKN1A gene expression result in the assay on CDKN1A is on record as “up regulating”.

`CC(=O)O[C@H]1C(=O)[C@@]2(C)[C@H]([C@H](OC(=O)c3ccccc3)[C@]3(O)C[C@H](OC(=O)[C@H](O)[C@@H](NC(=O)c4ccccc4)c4ccccc4)C(C)=C1C3(C)C)[C@]1(OC(C)=O)CO[C@@H]1C[C@@H]2O` (relative stereo) [Paclitaxel, (1S,2S,3R,4S,7R,9S,10S,12R,15S)-4,12-Diacetoxy-15-{[(2R,3S)-3-(benzoylamino)-2-hydroxy-3-phenylpropanoyl]oxy}-1,9-dihydroxy-10,14,17,17-tetramethyl-11-oxo-6-oxatetracyclo[11.3.1.0˜3, 10˜.0˜4,7˜]heptadec-13-en-2-yl rel-benzoate]: in the assay with CDKN1A, the CDKN1A gene expression entry is given as “does not affect”. The “effect on cellular cytoskeleton / morphology” value in the assay on SFA smooth muscle cells was “disrupting cellular cytoskeleton”. The figures for the CTGF gene expression result in the assay on CTGF [1] and with CTGF [1] (listed as paclitexel) were “substantial down regulation” and “substantially down regulated”, respectively. Besides, the CTGF protein levels result in the assay on CTGF [2] is given as “reduced”. For the same compound, the BTG2 gene expression result in the assay with BTG2 is “up regulated”. Also, the KLF4 gene expression result in the assay on KLF4 is reported as “up regulated”. The PEDF gene expression result in the assay with PEDF is “up regulated”. Moreover, the values for the Endothelin-1 gene expression result in the assay with Endothelin-1 (listed as paciltaxel) and with Endothelin-1 (listed as paclitexel) were “slightly inhibited” and “substantially down regulated”, respectively. The Thrombospondin-1 gene expression entry in the assay on Thrombospondin-1 (listed as paciltaxel) is recorded as “inhibited”; in the assay with Thrombospondin-1 (listed as paclitexel), “substantially down regulated”. In addition, the Thrombospondin-3 gene expression entry in the assay with Thrombospondin-3 (listed as paciltaxel) is listed as “inhibited”; with Thrombospondin-3 (listed as paclitexel), “substantially down regulated”. Moreover, in the assay with Cathepsin S, the “Cathepsin S expression” value was “induces”.

For the compound `CO[C@H]1C[C@@H]2CC[C@@H](C)[C@@](O)(O2)C(=O)C(=O)N2CCCC[C@H]2C(=O)O[C@H]([C@H](C)C[C@@H]2CC[C@H](n3cnnn3)[C@H](OC)C2)CC(=O)[C@H](C)/C=C(\C)[C@@H](O)[C@@H](OC)C(=O)[C@H](C)C[C@H](C)/C=C/C=C/C=C/1C` [zotarolimus], in the assay with BTG2, the BTG2 gene expression entry was “induced”. Besides, in the assay on KLF4, the KLF4 gene expression result is “induced”. For the same compound, the Endothelin-1 gene expression entry in the assay on Endothelin-1 is listed as “substantially upregulated”.
